{
  "source": "patent US11351347B2",
  "about": "“Vacuum-assisted drug delivery device and method” (VacuMed, LLC., priority 2014, dated 2022)",
  "test": "Vacuum-assisted trans-epithelial delivery of riboflavin into rabbit corneas, compared with standard delivery after epithelium removal",
  "format": "in vivo",
  "details": "trans-epithelial vacuum delivery through intact epithelium, varying application time periods; compared with standard method in which the epithelium is surgically removed",
  "procedure": "The device and method herein were tested to verify the effectiveness of the vacuum delivery system and to quantify concentrations of the standard formulation of riboflavin that is used in the process of cross-linking collagen corneal tissue in rabbit corneas. The tests employed the present invention to facilitate trans-epithelial delivery of riboflavin at varying application time periods, and compare the concentrations achieved with the concentration of riboflavin achieved through the standard method of riboflavin delivery (i.e., in which the epithelium is surgically removed). […] In other embodiments, high levels of vacuum, higher riboflavin concentrations, and the use of penetration enhancers may be used to increase the amount of riboflavin diffusion into the cornea per unit time. These animal studies clearly provide a proof of principle for the efficacious delivery of riboflavin into the cornea, through an intact epithelium, using the device and method of this invention. These studies also provide critical concentration/treatment time data for utilizing this invention.",
  "data": [
    {"smiles": "Cc1cc2nc3c(=O)[nH]c(=O)nc-3n(C[C@H](O)[C@H](O)[C@H](O)CO)c2cc1C", "note": "[riboflavin]", "values": [
      {"measurement": "riboflavin delivery to the cornea (concentration achieved)", "result": "equivalent to the effect of removing the corneal epithelium"}
    ]}
  ]
}
